According to a melting point compilation (Tetko et al.; mined from patent text by program, amines drawn as free bases though some values may be those of a salt):

Which melting point does the source give for `CCOC(=O)c1c(-c2ccccc2Cl)c2cc(Cl)ccc2n(C)c1=O` here?
Its melting point is 139 to 140 °C.

With `CCOC(=O)/C=C/c1ccc(OCCCC#N)cc1Oc1ncc(C(F)(F)F)cc1Cl` as the compound, how does the melting point read?
The melting point was 106 to 107 °C.

Which melting point does the source give for `CC(C)(C)c1cc(C=Cc2cc(C=Cc3cc(C(C)(C)C)cc(C(C)(C)C)c3)cc(C=C(Br)Br)c2)cc(C(C)(C)C)c1` here?
Its melting point is 148 to 150 °C.

With `COc1ccc2c(c1)CCn1ncnc1C2=C1CCN(C)CC1` as the compound, how does the melting point read?
Its melting point is 166 °C.

For `CC(=O)OCC1OC(n2cnc3c(NN4CCCCC4)nc(N)nc32)C(OC(C)=O)C1OC(C)=O` (stereo not given), which melting point is on record?
Its melting point is 77 to 79 °C.

Which melting point does the source give for `COc1cccc(C(=O)N2CCN(CC3(C)Cc4c(C)c(N)c(C)c(C)c4O3)CC2)c1` (stereo not given) here?
The melting point was 95 to 98 °C.

For `Fc1ccc(-c2cn(CCC#Cc3ccccn3)nn2)cc1`, which melting point is on record?
The melting point was 120 to 122 °C.

For `Cc1cc(C)c(Nc2nc(C)ccc2S(=O)(=O)c2ccc(OCc3cccc(C#N)c3)cc2)c(C)c1`, which melting point is on record?
The melting point was 155 to 158 °C.

For `Cc1cc(S(=O)(=O)N2c3ccccc3CC2C(=O)NCCOc2ccc(CC(=O)O)cc2)ccc1-c1cccc(C(F)(F)F)c1` (stereo not given), which melting point is on record?
Its melting point is 92 °C.

Which melting point does the source give for `CC1(C)OC(=O)N[C@H]1Cc1ccccc1` here?
Its melting point is 59 °C.

For `CC1(C)Oc2ccc(OC(F)(F)F)cc2[C@@H](NC(=O)c2ccccc2[N+](=O)[O-])[C@@H]1O`, which melting point is on record?
The melting point was 189 to 190 °C.

Which melting point does the source give for `CC1CC(=O)Nc2nc(Br)c3ncccc3c21` (stereo not given) here?
Its melting point is 251 to 252 °C.

Which melting point does the source give for `CS(=O)(=O)NNC(=O)c1nc(CS(=O)(=O)c2ccc(Cl)cc2)no1` here?
Its melting point is 198 to 202 °C.

For `COc1ccc2c(c1OC)C(=O)O[C@@H]2[C@H]1c2c(c(N=[N+]=[N-])c3c(c2OC)OCO3)CCN1C`, which melting point is on record?
The melting point was 177 to 178 °C.

Which melting point does the source give for `O=C1c2ccccc2C(=O)N1CCCCN1CCN(c2ncccn2)CC1` here?
Its melting point is 138 °C.

With `NC(=O)/C=C1\CC(O)c2ccc(F)cc21` (stereo not given) as the compound, how does the melting point read?
The melting point was 166 to 168 °C.

For `NS(=O)(=O)Oc1cccc(-n2cnc(-c3ccccc3)c2)c1`, which melting point is on record?
Its melting point is 209 to 211 °C.

For `O=C1N(Cc2ccc3nsnc3c2)c2ccccc2C12COc1cc3c(cc12)OCCO3` (stereo not given), which melting point is on record?
Its melting point is 189 to 191 °C.

With `N=C(NCc1c[nH]c2ccccc12)C(Cl)(Cl)Cl` as the compound, how does the melting point read?
Its melting point is 136 to 138 °C.

For `CC1(C)CC(O)c2cc(N)ccc21` (stereo not given), which melting point is on record?
The melting point was 118 °C.

With `CCOC(=O)c1cc2c(C(=O)CN(Cc3ccccc3)C(C)(C)C)ccc(OCc3ccccc3)c2[nH]1` as the compound, how does the melting point read?
Its melting point is 155 to 157 °C.

With `O=C(O)C1C2OCCC21Br` (mixture of isomers) as the compound, how does the melting point read?
Its melting point is 196 to 198 °C.

With `CCOC(=O)c1c(CCCCn2cncn2)nc2sc3cnccc3c2c1-c1ccc(OC)c(OC)c1` as the compound, how does the melting point read?
The melting point was 118 to 119 °C.

For `CC(C)(C)NC(=O)[C@@H]1C[C@H](Sc2ccccc2)CN1C(=O)OC(C)(C)C`, which melting point is on record?
Its melting point is 119 to 121 °C.

With `O=C(O)Cc1cnc(Cc2ccc(NC(=O)c3ccc(Cl)c(Cl)c3)cc2)n2ccnc12` as the compound, how does the melting point read?
Its melting point is 185 to 188 °C.

Which melting point does the source give for `O=C1Nc2ccccc2SC(c2ccccc2)=C1Cl` here?
The melting point was 239 to 241 °C.

With `CCOC(=O)c1cn(CC)c2nc(SC)ncc2c1=O` as the compound, how does the melting point read?
Its melting point is 148 °C.

Which melting point does the source give for `CC(C)(C)NC(=O)[C@@H](N)C(C)(C)C` here?
Its melting point is 78 to 80 °C.

For `O=C(O)CCc1ccc(OCc2ccccc2)cc1OCc1ccccc1`, which melting point is on record?
Its melting point is 125 to 127 °C.

With `NCC1CCc2[nH]c3ccc(Cl)cc3c2C1` (stereo not given) as the compound, how does the melting point read?
Its melting point is 142 to 144 °C.

For `CC(=O)OCC1Cc2cc(I)ccc2N1` (stereo not given), which melting point is on record?
The melting point was 64 to 66 °C.

For `CSc1ccccc1CNC(=O)[C@@H]1CCCN(c2cccc3c2C(=O)N(Cc2ccncc2)C3=O)C1`, which melting point is on record?
The melting point was 216 to 217 °C.

Which melting point does the source give for `C=Cc1cnc(C)c(O)c1CS` here?
The melting point was 198 to 200 °C.

With `O=c1n(-c2cc(O)c(Cl)cc2F)nc2ccc(Cl)cn12` as the compound, how does the melting point read?
Its melting point is greater than 210 °C.

Which melting point does the source give for `CCCC(=O)NC1C=CC(CO)C1` (stereo not given) here?
Its melting point is 71 to 72 °C.

Which melting point does the source give for `CCCCC(Cc1ccc(OCCN(CC)CC)cc1)(C(=O)O)S(=O)(=O)c1ccc(OC)cc1` (stereo not given) here?
Its melting point is 67 °C.

With `FC(F)(F)c1cccc2c1SSSSS2` as the compound, how does the melting point read?
Its melting point is 55 to 60 °C.

With `Cc1cn2cccc(OCc3c(Cl)ccc(S(=O)(=O)N4CCC[C@H]4C(=O)O)c3Cl)c2n1` as the compound, how does the melting point read?
Its melting point is 135 °C.

For `CC(C)(C)OC(=O)C1CSC(C2CC3CCC2C3)N1C(=O)CNC(=O)Nc1cccc(CC(=O)O)c1` (mixture of isomers), which melting point is on record?
Its melting point is 115 °C.

With `COC(=O)c1ccc(-c2nc(-c3ccc(Cl)cc3)co2)cc1` as the compound, how does the melting point read?
The melting point was 183 to 184 °C.

With `COc1ccc(F)c(OC)c1-c1ccc(C[C@H](NC(=O)c2c(Cl)cccc2Cl)C(=O)O)cc1` as the compound, how does the melting point read?
Its melting point is 228 to 229 °C.

Which melting point does the source give for `COc1ccccc1CN[C@H]1CCCN(CCO)[C@H]1c1ccccc1` (relative stereo) here?
Its melting point is 148 to 149 °C.

With `CCCCCC(=O)Nc1ccc(NNC(=O)N(C)c2cccc3c2C(=O)N(C)C3=O)cc1` as the compound, how does the melting point read?
Its melting point is 115 to 118 °C.

For `C[Si](C)(C)c1cn(Cc2ccc(C#N)cc2)nn1`, which melting point is on record?
The melting point was 83 °C.

With `CC(C)(Oc1ccc(Cl)cc1)C(=O)N1[C@@H](C(=O)O)C(C)(C)S[C@H]1c1ccccc1` as the compound, how does the melting point read?
Its melting point is 177 to 181 °C.

For `COc1ccccc1N1CCN(CCc2ccc3c(c2)oc(=O)n3C)CC1`, which melting point is on record?
The melting point was 137 to 138 °C.

For `CC(C)CN1C(=O)[C@H](CCCC#N)C[C@H]1CO`, which melting point is on record?
The melting point was 46 to 48 °C.

With `O=C1c2cccc(NCc3ccccc3)c2C(=O)c2cccc(NCc3ccccc3)c21` as the compound, how does the melting point read?
Its melting point is 218 to 220 °C.

With `O=C(O)C1CCC(=O)N1Cc1ccccc1C(F)(F)F` (stereo not given) as the compound, how does the melting point read?
The melting point was 139 to 141 °C.

Which melting point does the source give for `CCCCCCCCCCNc1c(Nc2ccc(CCCNC[C@H](O)COc3cccc4[nH]c5ccccc5c34)cc2)c(=O)c1=O` here?
Its melting point is 225 °C.

For `CC(=O)OC1=C(c2ccc(C)cc2)Sc2cc(C)ccc2NC1=O`, which melting point is on record?
The melting point was 233 to 235 °C.

Which melting point does the source give for `Cc1cccc(N2CCN(Cc3c[nH]c4ncccc34)CC2)c1` here?
Its melting point is 156 to 158 °C.

Which melting point does the source give for `CC(C)(CO)Nc1nc(SCc2cccc(Oc3ccccc3)c2)nc2nc(N)sc12` here?
The melting point was 126 to 130 °C.

With `CN1C(=O)C[C@@H](c2ccccc2)[C@H]1C(=O)c1ccccc1` as the compound, how does the melting point read?
The melting point was 115 to 116 °C.

With `CCOCc1cc2c(cc1C#Cc1ccccc1)NC(=O)CC(c1cccc(C#N)c1)=N2` as the compound, how does the melting point read?
The melting point was 229 °C.

For `CCOC(=O)c1cn2c3c(c(F)c(F)cc3c1=O)OCC2COC` (stereo not given), which melting point is on record?
The melting point was 238 °C.

With `Cc1ccc(S(=O)(=O)N2CCN(S(=O)(=O)c3ccc(C)cc3)CC3CCC(CN(S(=O)(=O)c4ccc(C)cc4)CC2)O3)cc1` as the compound, how does the melting point read?
The melting point was 175 to 178 °C.

For `C[C@H]([C@](O)(Cn1cncn1)c1ccc(F)cc1F)S(=O)(=O)N1CCN(c2ccc(-n3cnn(CC(F)(F)F)c3=O)cc2)CC1`, which melting point is on record?
Its melting point is 237 to 239 °C.

Which melting point does the source give for `CC(=O)N[C@H]1CCCc2ccccc21` here?
Its melting point is 153 to 155 °C.

With `COC(=O)c1c(F)cc(OCCNC(=O)C2Cc3ccccc3N2S(=O)(=O)c2ccc(-c3ccc(F)cc3)cc2)cc1F` (stereo not given) as the compound, how does the melting point read?
Its melting point is 83 °C.

Which melting point does the source give for `CC12CCC3C(CCC4CC(O)CCC43C)C1CCC2S` (stereo not given) here?
Its melting point is 169 to 170 °C.

With `O=C(O)CCCCCCCCCCCCCCCCCCCO` as the compound, how does the melting point read?
Its melting point is 86 °C.

With `OC(Cc1ccc(Cl)cc1)(Cn1cncn1)Cn1cncn1` as the compound, how does the melting point read?
The melting point was 116 to 118 °C.

With `Fc1ccc(NC(=S)Nc2nc3ccc(OC(F)(F)F)cc3s2)cc1` as the compound, how does the melting point read?
The melting point was 207 °C.

Which melting point does the source give for `O=C(O)c1cn(C2CC2)c2cc(N3CCNCC3)c(F)c(F)c2c1=O` here?
Its melting point is greater than 300 °C.

With `CC(C)(C)NC(=O)C(C)(C)C` as the compound, how does the melting point read?
The melting point was 116 to 118 °C.

For `Cc1nc(N)c2nc(C)n(CCCCNS(C)(=O)=O)c2c1C`, which melting point is on record?
The melting point was 228 to 230 °C.

For `CCCCCCCCC(=CC=C(O)C(=O)OCC)C(=O)OCC`, which melting point is on record?
Its melting point is 58 °C.

Which melting point does the source give for `CCCCc1nc2cc[nH]c(=O)c2n1Cc1ccc(-c2ccccc2C#N)cc1` here?
The melting point was 165 °C.

For `CSC(=NS(=O)(=O)c1cccnc1)SC`, which melting point is on record?
The melting point was 115 to 118 °C.
